System: Transport facilitation protein genes
Assay: DNA chip mRNA expression in yeast, transport facilitation protein genes (Table 5)
Assay type: cell-based, Saccharomyces cerevisiae S288C
Experimental: Yeast (Saccharomyces cerevisiae S288C (α SUC2mal mel gap2 CUP1)) were incubated at 25° C. on YPD medium (yeast extract 1%, polypepton 2%, glucose 2%). One of toxic chemical substances was added to the cells at logarithmic growth phase, and the cells were further incubated for two hours. Cells were cultured without any chemical substance in the same condition, and were used as control. Concentrations of the chemical substances were defined to inhibit the growth of the yeast but not lead to death.
After completion of the incubation, the culture was centrifuged to collect the cells. To the cells, sodium acetate buffer (50 mM sodium acetate, 10 mM EDTA, 1% SDS) was added, and the mixture was shaken at 65° C. for five minutes, followed by returning to room temperature, and obtaining the supernatant, of which the procedures were repeated two times. To the supernatant, ½ amount of a solution of phenol/chloroform was added, and the mixture was centrifuged to give a supernatant, which was added with an equal amount of chloroform, and the mixture was centrifuged to give a supernatant. To the supernatant, an equal amount of isopropanol containing 0.3 M sodium acetate was added, and the mixture was allowed to stand at room temperature for 30 minutes, after which the mixture was centrifuged to give a sediment of the whole RNAs. Seventy % ethanol was added to the sediment, and the mixture was again centrifuged to give a sediment, which was then dried and dissolved in water. mRNA was isolated from the whole RNAs as followings. In view of the fact that a poly A chain is attached to the 3′ terminus of mRNA, a polynucleotide having a poly T structure which was immobilized on the surface of latex beads was used to trap the mRNA, and then the mRNA was washed and eluted with spine column (Oligotex-dT30<Super>mRNA Purification Kit, Takara). Reverse transcription of the mRNA was conducted with a reverse transcriptase (Super Script II Reverse Transcriptase; catalogue No. 18064-014, GibcoBRL) using fluorescence-labeled nucleotides to give cDNAs that were introduced with Cy3-dUTP or Cy5-dUTP during the reverse transcription.
The labeled cDNAs were dissolved in TE buffer (10mM Tris-HCl/1 mM EDTA, pH8.0), and the solution was dropped on the DNA chip containing the whole genes of yeast (DNA Chip Research Inc. Japan) so that the cDNAs were hybridized on the DNA chip at 65° C. for over 12 hours. The fluoresces intensity of the DNA chip was read with a scanner, and the ratio relative to the fluorescence intensity resulting from the absence of chemical substance was estimated as the following, which is shown in Tables 1 to 9: […]

[Cl][Hg][Cl] [(3), HgCl2]
The level of expressed mRNA in the presence of chemical substance/The level of expressed mRNA in the absence of chemical substance (yeast gene YGR224W): 1.2
The level of expressed mRNA in the presence of chemical substance/The level of expressed mRNA in the absence of chemical substance (yeast gene YGR260W): 3.4
The level of expressed mRNA in the presence of chemical substance/The level of expressed mRNA in the absence of chemical substance (yeast gene YGR281W): 1.3
The level of expressed mRNA in the presence of chemical substance/The level of expressed mRNA in the absence of chemical substance (yeast gene YHL035C): 0.9
The level of expressed mRNA in the presence of chemical substance/The level of expressed mRNA in the absence of chemical substance (yeast gene YHL040C): 1.5
The level of expressed mRNA in the presence of chemical substance/The level of expressed mRNA in the absence of chemical substance (yeast gene YHL047C): 1.0
The level of expressed mRNA in the presence of chemical substance/The level of expressed mRNA in the absence of chemical substance (yeast gene YHR026W): 1.9
The level of expressed mRNA in the presence of chemical substance/The level of expressed mRNA in the absence of chemical substance (yeast gene YHR092C): 7.5
The level of expressed mRNA in the presence of chemical substance/The level of expressed mRNA in the absence of chemical substance (yeast gene YHR094C): 5.3
The level of expressed mRNA in the presence of chemical substance/The level of expressed mRNA in the absence of chemical substance (yeast gene YHR175W): 2.4
The level of expressed mRNA in the presence of chemical substance/The level of expressed mRNA in the absence of chemical substance (yeast gene YIL006W): 1.4
The level of expressed mRNA in the presence of chemical substance/The level of expressed mRNA in the absence of chemical substance (yeast gene YIL022W): 1.1
The level of expressed mRNA in the presence of chemical substance/The level of expressed mRNA in the absence of chemical substance (yeast gene YIL056W): 6.2
The level of expressed mRNA in the presence of chemical substance/The level of expressed mRNA in the absence of chemical substance (yeast gene YIL088C): 2.1
The level of expressed mRNA in the presence of chemical substance/The level of expressed mRNA in the absence of chemical substance (yeast gene YJL034W): 3.0
The level of expressed mRNA in the presence of chemical substance/The level of expressed mRNA in the absence of chemical substance (yeast gene YJL212C): 3.1
The level of expressed mRNA in the presence of chemical substance/The level of expressed mRNA in the absence of chemical substance (yeast gene YJL219W): 3.1
The level of expressed mRNA in the presence of chemical substance/The level of expressed mRNA in the absence of chemical substance (yeast gene YJR077C): 2.0
The level of expressed mRNA in the presence of chemical substance/The level of expressed mRNA in the absence of chemical substance (yeast gene YJR106W): 1.5
The level of expressed mRNA in the presence of chemical substance/The level of expressed mRNA in the absence of chemical substance (yeast gene YJR121W): 3.3
The level of expressed mRNA in the presence of chemical substance/The level of expressed mRNA in the absence of chemical substance (yeast gene YKL016C): 0.7
The level of expressed mRNA in the presence of chemical substance/The level of expressed mRNA in the absence of chemical substance (yeast gene YKL146W): 1.3
The level of expressed mRNA in the presence of chemical substance/The level of expressed mRNA in the absence of chemical substance (yeast gene YKR039W): 1.3
The level of expressed mRNA in the presence of chemical substance/The level of expressed mRNA in the absence of chemical substance (yeast gene YKR067W): 1.5
The level of expressed mRNA in the presence of chemical substance/The level of expressed mRNA in the absence of chemical substance (yeast gene YLL028W): 4.6
The level of expressed mRNA in the presence of chemical substance/The level of expressed mRNA in the absence of chemical substance (yeast gene YLR081W): 2.8
The level of expressed mRNA in the presence of chemical substance/The level of expressed mRNA in the absence of chemical substance (yeast gene YLR295C): 1.1
The level of expressed mRNA in the presence of chemical substance/The level of expressed mRNA in the absence of chemical substance (yeast gene YLR348C): 1.2
The level of expressed mRNA in the presence of chemical substance/The level of expressed mRNA in the absence of chemical substance (yeast gene YLR378C): 2.6
The level of expressed mRNA in the presence of chemical substance/The level of expressed mRNA in the absence of chemical substance (yeast gene YMR011W): 9.4
The level of expressed mRNA in the presence of chemical substance/The level of expressed mRNA in the absence of chemical substance (yeast gene YMR162C): 1.1
The level of expressed mRNA in the presence of chemical substance/The level of expressed mRNA in the absence of chemical substance (yeast gene YMR203W): 3.0
The level of expressed mRNA in the presence of chemical substance/The level of expressed mRNA in the absence of chemical substance (yeast gene YNL055C): 5.5
The level of expressed mRNA in the presence of chemical substance/The level of expressed mRNA in the absence of chemical substance (yeast gene YNL259C): 1.1
The level of expressed mRNA in the presence of chemical substance/The level of expressed mRNA in the absence of chemical substance (yeast gene YNR072W): 0.5
The level of expressed mRNA in the presence of chemical substance/The level of expressed mRNA in the absence of chemical substance (yeast gene YOL119C): 1.5
The level of expressed mRNA in the presence of chemical substance/The level of expressed mRNA in the absence of chemical substance (yeast gene YOL156W): 2.5
The level of expressed mRNA in the presence of chemical substance/The level of expressed mRNA in the absence of chemical substance (yeast gene YOL163W): 2.1
The level of expressed mRNA in the presence of chemical substance/The level of expressed mRNA in the absence of chemical substance (yeast gene YOR035C): 0.3
The level of expressed mRNA in the presence of chemical substance/The level of expressed mRNA in the absence of chemical substance (yeast gene YOR130C): 1.4
The level of expressed mRNA in the presence of chemical substance/The level of expressed mRNA in the absence of chemical substance (yeast gene YOR153W): 5.1
The level of expressed mRNA in the presence of chemical substance/The level of expressed mRNA in the absence of chemical substance (yeast gene YOR273C): 1.7
The level of expressed mRNA in the presence of chemical substance/The level of expressed mRNA in the absence of chemical substance (yeast gene YOR316C): 1.5
The level of expressed mRNA in the presence of chemical substance/The level of expressed mRNA in the absence of chemical substance (yeast gene YOR332W): 1.0
The level of expressed mRNA in the presence of chemical substance/The level of expressed mRNA in the absence of chemical substance (yeast gene YOR348C): 1.2
The level of expressed mRNA in the presence of chemical substance/The level of expressed mRNA in the absence of chemical substance (yeast gene YPL036W): 2.8
The level of expressed mRNA in the presence of chemical substance/The level of expressed mRNA in the absence of chemical substance (yeast gene YPL134C): 1.6
The level of expressed mRNA in the presence of chemical substance/The level of expressed mRNA in the absence of chemical substance (yeast gene YPL271W): 4.1
The level of expressed mRNA in the presence of chemical substance/The level of expressed mRNA in the absence of chemical substance (yeast gene YPR192W): 0.9
The level of expressed mRNA in the presence of chemical substance/The level of expressed mRNA in the absence of chemical substance (yeast gene YPR194C): 0.5
